Assay results from US6573263B2, “Substituted imidazotriazinones” (Bayer Aktiengesellschaft, priority 2000, dated 2003).

Key:
rats = experiment: Object recognition test (memory test); format: in vivo; conditions: rat, dose of 1.0 mg/kg of body weight p.o., 24 hours interval
Experimental: The object recognition test is a memory test. It measures the ability of rats (and mice) to differentiate between known and unknown objects and is therefore suitable for the determination of the memory-improving action of the compounds according to the invention.
The test is carried out as described (Blokland et al. NeuroReport 1998, 9, 4205-4208; Ennaceur, A., Delacour, J., Behav. Brain Res. 1988, 31, 47-59; Ennaceur, A., Meliani, K., Psychopharmacology 1992, 109, 321-330; Prickaerts, et al. Eur. J. Pharmacol. 1997, 337, 125-136).
In a first passage, a rat in an otherwise empty relatively large observation arena is confronted with two identical objects. The rat will extensively examine, i.e. sniff and touch, both objects. In a second passage, after an interval of 24 hours, the rat is again tested in the observation arena. One of the known objects is now replaced by a new, unknown object. When a rat recognizes the known object, it will especially examine the unknown object. After 24 hours, a rat, however, has normally forgotten which object it has already examined in the first passage, and will therefore inspect both objects equally intensively. The administration of a substance having learning- and memory-improving action will lead to a rat recognizing the object already seen 24 hours beforehand, in the first passage, as known. […]

PDE 2 = biological target: T1, PDE 2 (UniProt P14099); experiment: Measurement of the PDE inhibition (PDE 2, [3H]-cAMP substrate, cGMP prestimulation); format: biochemical, porcine or bovine; conditions: cGMP-stimulated PDE 2
T1 sequence (P14099 1-921): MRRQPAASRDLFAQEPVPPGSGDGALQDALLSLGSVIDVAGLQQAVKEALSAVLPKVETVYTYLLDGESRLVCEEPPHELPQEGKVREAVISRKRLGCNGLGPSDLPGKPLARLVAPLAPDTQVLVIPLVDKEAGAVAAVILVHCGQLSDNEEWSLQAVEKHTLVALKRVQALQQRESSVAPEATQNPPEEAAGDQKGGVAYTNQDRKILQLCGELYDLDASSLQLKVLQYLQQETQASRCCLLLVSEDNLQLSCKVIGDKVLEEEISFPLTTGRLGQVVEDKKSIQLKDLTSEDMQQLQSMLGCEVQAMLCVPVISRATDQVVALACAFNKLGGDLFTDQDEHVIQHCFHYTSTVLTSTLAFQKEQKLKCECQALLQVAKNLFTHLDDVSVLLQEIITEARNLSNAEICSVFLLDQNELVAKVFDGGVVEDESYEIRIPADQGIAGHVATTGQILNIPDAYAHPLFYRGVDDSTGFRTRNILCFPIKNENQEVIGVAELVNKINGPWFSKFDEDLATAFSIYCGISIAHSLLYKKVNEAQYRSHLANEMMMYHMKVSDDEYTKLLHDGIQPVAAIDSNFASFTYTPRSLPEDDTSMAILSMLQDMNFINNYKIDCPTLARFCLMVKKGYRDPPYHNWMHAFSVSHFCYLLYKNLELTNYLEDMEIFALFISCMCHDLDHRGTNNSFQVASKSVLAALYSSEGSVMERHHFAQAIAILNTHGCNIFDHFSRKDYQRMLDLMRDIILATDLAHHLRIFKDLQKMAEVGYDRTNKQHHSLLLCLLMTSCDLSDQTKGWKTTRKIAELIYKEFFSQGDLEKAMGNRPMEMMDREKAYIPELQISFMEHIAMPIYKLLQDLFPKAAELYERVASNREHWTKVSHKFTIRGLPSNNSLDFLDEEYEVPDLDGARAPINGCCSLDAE
Experimental: The cGMP-stimulable PDE (PDE 2), the cGMP-inhibitable PDE (PDE 3) and the cAMP-specific PDE (PDE 4) were isolated either from porcine or bovine heart myocardium. The Ca^2+ calmodulin-stimulable PDE 1 was isolated from porcine aorta, porcine brain or preferably from bovine aorta. The cGMP-specific PDE (PDE 5) was preferably obtained from porcine small intestine, porcine aorta, human blood platelets and preferably from bovine aorta. Purification was carried out by anion exchange chromatography on mono Q^R Pharmacia essentially according to the method of Hoey, M; Houslay, M. D., Biochem. Pharmacol. 1990, 40, 193-202 and Lugman et al. Biochem. Pharmacol. 1986, 35, 1743-1751.
The enzyme activity was determined in a test batch of 100 μl in 20 mM tris/HCl buffer pH 7.5 which contains 5 mM MgCl2, 0.1 mg/ml of bovine serum albumin and either 800 Bq of [^3H]-cAMP or [^3H]-cGMP. […] 100 μl of the reaction batch are separated on the HPLC and the cleavage products are determined quantitatively online using a flow-through scintillation counter. The substance concentration at which the reaction rate is decreased by 50% is measured. […]
Test substances were dissolved in 100% DMSO (10 mM), and this solution was further diluted with H2O (highest final concentration in the test: 10 μM). […] After the beads had settled (about 15 min), the plate was measured in a beta counter.

[1] = test system: intracellular neuronal cGMP concentration in primary rat brain cell cultures; experiment: Measurement of the increase in the intracellular neuronal cGMP concentration in cell cultures (SNP prestimulation); format: cell-based; conditions: parallel incubation of neurons with SNP, 37° C., 20 min
From the text: PDE 2 inhibitors increase the intracellular neuronal cGMP concentration after prestimulation of the guanylate cyclase using 10^−4 M sodium nitroprusside (SNP) in primary rat brain cell cultures.
Rat embryos were decapitated and the heads were transferred to preparation dishes. The scalp and cranium were removed, and the exposed brains were transferred to a further Petri dish. With the aid of a binocular microscope and two pairs of forceps, hippocampi were isolated from the cortex and cooled to 4° C. using ice. This preparation and the isolation of the hippocampal neurons were then carried out according to a standard protocol using the papain dissociation system (Worthington Biochemical Corporation, Lakewood, N.J. 08701, USA) (Huettner et al. J. Neurosci. 1986, 6, 3044-3060). The mechanically isolated neurons were cultured under standard conditions (37° C., 5% CO2) to 150,000 cells/hole in 200 μl of neurobasal medium/hole (neurobasal; Gibco/BRL; 2 mM L-glutamine; in the presence of penicillin/streptomycin) for 7 days in 96-hole plates (pretreated with poly-D-lysine 100 μg/ml for 20 min). After 7 days, the medium was removed and the cells were washed with HBS buffer (Gibco/BRL). […] The cells were then lysed in 200 μl of lysis buffer (cGMP kit code RPN 226; from Amersham Pharmacia Biotech.) and the cGMP concentration was measured according to the instructions of the manufacturer. […]

With `COc1ccc(Cc2nn3c([C@@H](CCCc4ccccc4)[C@@H](C)O)nc(C)c3c(=O)[nH]2)cc1OC` (single isomer, unassigned) [Example 16] as the molecule, how does the “effect in the object recognition test” value (rats) read?
Its value is “shows an effect”.

For `COc1ccc(Cc2nn3c(C(CCCc4ccccc4)C(C)=O)nc(C)c3c(=O)[nH]2)cc1` (stereo not shown) [Example 2, 7-(1-Acetyl-4-phenylbutyl)-2-(4-methoxybenzyl)-5-methylimidazo[5,1-f][1,2,4]triazin-4(3H)-one], which melting point is on record?
Its melting point is 138 °C.

What about the IC50 (PDE 2) of the same molecule?
The IC50 was 10 nM.

Which “concentration from which a marked increase in the intracellular cGMP level was seen” value [1] does the source give for `COc1ccc(Cc2nn3c(C(CCCc4ccccc4)C(C)O)nc(C)c3c(=O)[nH]2)cc1OC` (stereo not shown) [Example 15, 2-(3,4-Dimethoxybenzyl)-7-[1-(1-hydroxyethyl)-4-phenylbutyl]-5-methylimidazo-[5,1-f][1,2,4]triazin-4(3H)-one] here?
The value was ≥ 100 nM.
